Source: patent US20260061008A1, “METHODS OF INCREASING MESENCHYMAL STROMAL CELL BIOSYNTHESIS OF SPECIALIZED PRO-RESOLVING MEDIATORS AND METHODS OF USE” (University of Oregon, priority 2022, published 2026)

Legend:
[1] = tested on: MSCs encapsulated in PEG-4MAL hydrogels; assay: RvD1 ELISA of media from MSCs encapsulated in PEG-4MAL hydrogels and treated with DHA; type: cell-based; details: 160 μM DHA, TCP and PEG-4MAL encapsulated MSCs
Procedure: MSCs were cultured in Tissue Culture Plastic (TCP) or encapsulated in PEG-4MAL hydrogels. The 20 kDa four-arm PEG-4MAL was sourced from Laysan Bio (Item #: 4arm-PEG-20K-5g). A solution of 4% w/v PEG in a 0.5 M (pH=7) MES buffer was prepared. The two peptides, RGD (GCGYGRGDSPG; SEQ ID NO: 1) for functionalization of the gel and VPM (GCRDVPMSMRGGDRCG; SEQ ID NO: 2) for crosslinking were also dissolved in the 0.5 M MES buffer. The hydrogels were prepared using a 2:1:1:1 volume ratio of PEG: RGD: cells/PBS: VPM. The 4% PEG translates to 2 mM in the hydrogel prepared from a 5 mM PEG stock solution. Based on the concentration of maleimides per PEG molecule (8 mM maleimide in 2 mM PEG-4MAL) the RGD concentration was 0.768 mM final concentration in the gel (from a 3.84 mM stock and accounting for ˜96% purity) and the VPM concentration required to cross-link the remaining maleimides in the PEG was 3.456 mM final in the gel (17.28 mM stock). […]
MSCs were treated with 160 μM DHA in the hydrogels in three different conditions. […] Samples of cell culture media were taken incrementally over a period of five days and Resolvin D1 levels were measured via ELISA assay. In addition, samples of the cell culture medium were taken 24 hours after treatment for each group and these samples were analyzed by LCMS (Wayne State University Lipidomics core facility).

[2] = tested on: OA progression; details: mice, repeated intra-articular injections into knee joints; cited from earlier work

Row | SMILES | Duration of continued RvD1 production [1] | OA progression [2]
1 | CC/C=C\C/C=C\C/C=C\C/C=C\C/C=C\C/C=C\CCC(=O)O [DHA, docosahexaenoic acid] | at least 120 hours | –
2 | CC/C=C\C[C@H](O)/C=C/C=C\C=C\C=C\[C@@H](O)[C@@H](O)C/C=C\CCC(=O)O [Resolvin D1] | – | attenuate OA progression
